How the values were obtained:
Assay type in all cases: cell-based
[1] = tested on: Streptococcus sobrinus; TH 21; assay: Ozone on S. sobrinus on saliva coated glass beads; conditions: 10 seconds of ozone applied to glass beads
Source text: (§1) The aims of these studies were to evaluate the efficiency of ozone on primary root caries and associated micro-organisms (Streptococcus sobrinus; TH 21, Streptococcus mutans; NCTC 10449). In study 1, 40 soft primary root carious lesions (PRCLs) from freshly extracted teeth were used and randomly divided into two groups to test the exposure to ozone for either 10 or 20 seconds. There was a significant (p<0.001) difference (Mean±SE) between the control samples for. either 10 seconds (log10 5.91±0.15) or 20 seconds (log10 6.18±0.21) and ozone treated samples for either 10 seconds (log10 3.57±0.37) or 20 seconds (log10 3.77±0.42). In study 2, 40 sterile saliva coated glass beads were put into bijoux bottles with 3 mls of Todd Hewitt broth for control and test groups. S. sobrinus and S. mutans were inoculated and incubated anaerobically overnight. Each glass bead was washed with 2 mls of PBS. Immediately, 10 seconds of ozone was applied to the glass beads in the test groups. Subsequently, each glass bead in the test and control groups was placed in 3 mls of Todd Hewitt Broth with six more sterile glass beads and were vortexed for 30 seconds. After decimal dilutions, 100 ml aliquots were spread on blood agar plates supplemented with 5% (V/V) horse blood and placed in an anaerobic chamber at 37° C. for two days. The number of each colony type was counted and calculated. […]

[2] = tested on: micro-organisms in primary root carious lesions (PRCL); assay: Ozone effect on microflora from primary root caries ex-vivo; conditions: for Mean ± SE of total cfu (Log10): after 10 seconds of ozone treatment
Source text: Primary root carious lesions (PRCL) are a major clinical problem. The aim of this study was to establish if ozone could achieve effective microbial killing in PRCL. An ozone producing generator (Purezone Ltd., Ipswich, U.K.) was used in this ex-vivo study assessing the use of ozone on PRCL. In this study, soft PRCL requiring restoration were used as these are the most severe type of lesion found in humans. 20 freshly extracted teeth with PRCL requiring restoration were used. After plaque removal using a hand held standard fine nylon fibre sterile toothbrush with sterile water as a lubricant to cleanse the surface, each tooth was then isolated using sterile cotton wool rolls and dried using a dry sterile cotton wool roll. […] Each sample was weighed and immediately placed in 1 ml of Fastidious Anaerobe Broth (FAB). To each 1 ml of FAB containing a biopsy of carious or ozone treated carious dentine, sterile glass beads were added. They were vortexed for 30 seconds to facilitate the extraction of any micro-organisms from the carious dentine and disperse any aggregates. After decimal dilution with FAB, […] of these was spread on Fastidious Anaerobe Agar (LabM. Bury, Lancs., U.K.) supplemented with 5% (V/V) horse blood in an anaerobic chamber at 37° C. for four days. The mean±SE number of each colony type was counted and calculated.
The procedure of Example 2 was repeated except that ozonised water was applied to the lesion for 20 seconds.
as §1, with “After decimal dilutions, 100 ml aliquots were spread on blood agar plates supplemented with 5% (V/V) horse blood and placed in an anaerobic chamber at 37° C. for two days.” left out

[3] = tested on: Streptococcus mutans; NCTC 10449; assay: Ozone on S. mutans on saliva coated glass beads; conditions: 10 seconds of ozone applied to glass beads
Source text: as §1

Question: What does the source list for `O=[O+][O-]` [Ozone, ozone]?
Answer: colony count (log10, Mean±SE) [1]: 1.09±0.36 log10; percentage of micro-organisms killed ([2]; 10 seconds of ozone treatment): more than 99%; Mean ± SE of total cfu (Log10) ([2]; soft PRCL, freshly extracted teeth): 3.57 ± 0.37 Log10; Mean ± SE of total cfu (Log10) ([2]; soft PRCL, freshly extracted teeth, listed as ozone): 3.57±0.37 Log10; Mean ± SE of total cfu (log10) ([2]; after 20 seconds of ozone (ozonised water) treatment, soft PRCL, freshly extracted teeth): 3.77±0.42 log10; colony count (log, Mean±SE) [3]: 1.01±0.27 log

Reference: patent US6409508B1, “Use of ozone for the treatment of dental caries” (Natural White, priority 1998, dated 2002)
